From paper PMC8286840, “Identifying SARS-CoV-2 antiviral compounds by screening for small molecule inhibitors of Nsp3 papain-like protease” (Biochemical Journal, 2021)
Where a name gives a salt, the structure may show the parent alone. Read-outs that look alike come from different tables or passages of the source. Where a SMILES comes first, the peptide text is derived from it. The star is where a group is joined. Cbz = O=C(OCc1ccccc1)*

How the values were obtained:
[1] = target: T1, SARS-CoV-2 PLpro (nsp3 1564–1878) (Severe acute respiratory syndrome coronavirus 2, UniProt P0DTD1); assay: biochemical; set-up: FRET-quenched peptide (Pro3) cleavage by PLpro, 10 min pre-incubation, slope over 20 min, normalised to no-compound control; settings: low concentration screen, read-out: % of control remaining
[2] = target: T1, SARS-CoV-2 PLpro (nsp3 1564–1878); assay: biochemical; set-up: FRET-quenched peptide (Pro3) cleavage by PLpro, 10 min pre-incubation, slope over 20 min, normalised to no-compound control; settings: high concentration screen, read-out: % of control remaining

Structure (SMILES): COc1cc2c3cc1Oc1c(OC)c(OC)cc4c1[C@@H](Cc1ccc(OC(=O)c5ccc([N+](=O)[O-])cc5)c(c1)Oc1ccc(cc1)C[C@@H]3N(C)CC2)N(C)CC4 [E6 Berbamine]
- remaining activity at 1.25 µM ([1]; Well no.=3237): 97.5%
- remaining activity at 3.75 µM ([2]; Well no.=3237): 95%

Structure (SMILES): O=C(O)Cn1nnc(-c2cc(N3CCC(Oc4cc(F)ccc4Br)CC3)no2)n1 [MK-8245]
- remaining activity at 1.25 µM ([1]; Well no.=4842): 90.5%
- remaining activity at 3.75 µM ([2]; Well no.=4842): 85.1%

Structure (SMILES): CCCCCCCCCCCCCC(=O)O[C@@H]1[C@@H](C)[C@@]2(O)[C@@H](C=C(CO)C[C@]3(O)C(=O)C(C)=C[C@@H]23)[C@@H]2C(C)(C)[C@]12OC(C)=O [Phorbol 12-myristate 13-acetate]
- remaining activity at 1.25 µM ([1]; Well no.=1493): 101%
- remaining activity at 1.25 µM ([1]; Well no.=3078): 102%
- remaining activity at 3.75 µM ([2]; Well no.=1493): 97.5%
- remaining activity at 3.75 µM ([2]; Well no.=3078): 105%

Structure (SMILES): C[N+](C)(C)CC#CCN1CCCC1=O [Oxotremorine methiodide]
- remaining activity at 1.25 µM ([1]; Well no.=1138): 96.9%
- remaining activity at 3.75 µM ([2]; Well no.=1138): 97.9%

Structure (SMILES): C[C@H](N)[C@H](O)c1ccccc1 [Phenylpropanolamine]
- remaining activity at 1.25 µM ([1]; Well no.=2292): 96.7%
- remaining activity at 3.75 µM ([2]; Well no.=2292): 97.2%

Structure (SMILES): COc1cc2ncnc(-n3nc(-c4ccccn4)nc3N)c2cc1OC [CP-466722]
- remaining activity at 1.25 µM ([1]; Well no.=5158): 103%
- remaining activity at 3.75 µM ([2]; Well no.=5158): 101%

Structure (SMILES): O=C1O[C@]2(CC[C@H](C(=O)Nc3ccn(-c4ccccc4F)n3)CC2)c2cnccc21 [MK-0557]
- remaining activity at 1.25 µM ([1]; Well no.=6987): 104%
- remaining activity at 3.75 µM ([2]; Well no.=6987): 104%

Structure (SMILES): C[C@H](NC(=O)c1c(C(F)F)nn(C)c1Oc1cccc(C(F)(F)F)c1)c1ccc(C(=O)O)cc1 [E7046]
- remaining activity at 1.25 µM ([1]; Well no.=8441): 94.7%
- remaining activity at 3.75 µM ([2]; Well no.=8441): 94.6%

Structure (SMILES): COc1ccc(-c2nn3c(-c4ccccn4)nnc3s2)cc1OC [Cardionogen-2]
- remaining activity at 1.25 µM ([1]; Well no.=5937): 102%
- remaining activity at 3.75 µM ([2]; Well no.=5937): 99.4%

Structure (SMILES): CC1=C(O)C(=O)C=C2C1=CC=C1[C@@]2(C)CC[C@@]2(C)[C@@H]3C[C@](C)(C(=O)O)CC[C@]3(C)CC[C@]12C [Celastrol]
- remaining activity at 1.25 µM ([1]; Well no.=3430): 95.7%
- remaining activity at 3.75 µM ([2]; Well no.=3430): 94.6%

Structure (SMILES): COCCCCCCCCCCCC(=O)O [12-Methoxydodecanoic acid]
- remaining activity at 1.25 µM ([1]; Well no.=4262): 96%
- remaining activity at 1.25 µM ([1]; Well no.=4359): 101%
- remaining activity at 3.75 µM ([2]; Well no.=4262): 94.8%
- remaining activity at 3.75 µM ([2]; Well no.=4359): 97.3%

Structure (SMILES): Nc1c(Br)cc(Br)cc1CN[C@H]1CC[C@H](O)CC1 [Ambroxol HCl]
- remaining activity at 1.25 µM ([1]; Well no.=5311): 99.4%
- remaining activity at 3.75 µM ([2]; Well no.=5311): 97.1%

Structure (SMILES): COc1cc2c(cc1OC)-c1cc3ccc(OC)c(OC)c3c[n+]1CC2 [Palmatine chloride]
- remaining activity at 1.25 µM ([1]; Well no.=3641): 101%
- remaining activity at 3.75 µM ([2]; Well no.=3641): 99.2%

Structure (SMILES): Cn1cnc2c(NCc3ccccc3)nc(NCCO)nc21 [Olomoucine - 6-(Benzylamino)-2-(2-hydroxyethylamino)-9-methylpurine]
- remaining activity at 1.25 µM ([1]; Well no.=2382): 101%
- remaining activity at 3.75 µM ([2]; Well no.=2382): 102%

Structure (SMILES): CC(C)c1noc(N2CCC(COc3ccc(-c4ccc(S(C)(=O)=O)cc4)nc3)CC2)n1 [GSK1292263]
- remaining activity at 1.25 µM ([1]; Well no.=5106): 93.1%
- remaining activity at 1.25 µM ([1]; Well no.=8539): 105%
- remaining activity at 3.75 µM ([2]; Well no.=5106): 97.1%
- remaining activity at 3.75 µM ([2]; Well no.=8539): 104%

Structure (SMILES): CCCCCCCCCCCCCCCCCCCCCCC(=O)O [Tricosanoic acid]
- remaining activity at 1.25 µM ([1]; Well no.=4496): 91.3%
- remaining activity at 3.75 µM ([2]; Well no.=4496): 92.7%

Structure (SMILES): C[C@@H]1C[C@@H]([C@H](O)CC2CC(=O)NC(=O)C2)C(=O)[C@@H](C)C1 [Cycloheximide]
- remaining activity at 1.25 µM ([1]; Well no.=3179): 98.2%
- remaining activity at 3.75 µM ([2]; Well no.=3179): 98.5%

Structure (SMILES): COc1cc(C)c(/C=C/C(C)=C/C=C/C(C)=C/C(=O)O)c(C)c1C [Acitretin]
- remaining activity at 1.25 µM ([1]; Well no.=1817): 96.4%
- remaining activity at 3.75 µM ([2]; Well no.=1817): 96.3%

Structure (SMILES): O=C(Nc1c[nH]nc1-c1nc2ccc(CN3CCOCC3)cc2[nH]1)NC1CC1 [AT9283]
- remaining activity at 1.25 µM ([1]; Well no.=2884): 93.2%
- remaining activity at 3.75 µM ([2]; Well no.=2884): 95.8%

Structure (SMILES): NCCc1ccc(O)c(O)c1 [Dopamine (hydrochloride)]
- remaining activity at 1.25 µM ([1]; Well no.=6268): 96.9%
- remaining activity at 3.75 µM ([2]; Well no.=6268): 96.3%

Structure (SMILES): COc1cc2nc(N3CCN(C(=O)c4ccco4)CC3)nc(N)c2cc1OC [Prazosin (hydrochloride)]
- remaining activity at 1.25 µM ([1]; Well no.=6411): 96.4%
- remaining activity at 3.75 µM ([2]; Well no.=6411): 85.9%

Structure (SMILES): O=C(O)CCCc1c[nH]c2ccccc12 [Indole-3-butyric acid]
- remaining activity at 1.25 µM ([1]; Well no.=3210): 91.8%
- remaining activity at 3.75 µM ([2]; Well no.=3210): 98.5%

Structure (SMILES): CC(C)(C)c1ccc(C(O)CCCN2CCC(C(O)(c3ccccc3)c3ccccc3)CC2)cc1 (stereo not shown) [Terfenadine]
- remaining activity at 1.25 µM ([1]; Well no.=1232): 100%
- remaining activity at 1.25 µM ([1]; Well no.=1742): 97.7%
- remaining activity at 1.25 µM ([1]; Well no.=6598): 103%
- remaining activity at 3.75 µM ([2]; Well no.=1232): 102%
- remaining activity at 3.75 µM ([2]; Well no.=1742): 98.6%
- remaining activity at 3.75 µM ([2]; Well no.=6598): 104%

Structure (SMILES): Oc1ccc([C@H]2COc3cc(O)ccc3C2)cc1 [(-)-(S)-Equol]
- remaining activity at 1.25 µM ([1]; Well no.=7405): 110%
- remaining activity at 3.75 µM ([2]; Well no.=7405): 107%

Structure (SMILES): N[C@@H](Cc1c[nH]c2ccc(O)cc12)C(=O)O [5-Hydroxy-L-tryptophan]
- remaining activity at 1.25 µM ([1]; Well no.=712): 91.8%
- remaining activity at 3.75 µM ([2]; Well no.=712): 98.5%

Structure (SMILES): CC(C)(C)C(O)/C(=C\c1ccc(Cl)cc1)n1cncn1 (stereo not shown) [Uniconazole]
- remaining activity at 1.25 µM ([1]; Well no.=8248): 104%
- remaining activity at 3.75 µM ([2]; Well no.=8248): 102%

Structure (SMILES): CC(C)C[C@@H](C=O)NC(=O)[C@H](CC(C)C)NC(=O)[C@H](CC(C)C)NC(=O)OCc1ccccc1 [MG-132] (Cbz-Leu-Leu-Leu-aldehyde)
- remaining activity at 1.25 µM ([1]; Well no.=8436): 96.8%
- remaining activity at 3.75 µM ([2]; Well no.=8436): 97.5%

Structure (SMILES): O=S(=O)(c1ccccc1)c1cnc2c(N3CCNCC3)cccc2c1 [SB-742457]
- remaining activity at 1.25 µM ([1]; Well no.=4839): 98.1%
- remaining activity at 1.25 µM ([1]; Well no.=7183): 94.6%
- remaining activity at 3.75 µM ([2]; Well no.=4839): 104%
- remaining activity at 3.75 µM ([2]; Well no.=7183): 91.3%

Structure (SMILES): COc1cc2c(CCNC(C)=O)c[nH]c2cc1O [6-Hydroxymelatonin]
- remaining activity at 1.25 µM ([1]; Well no.=654): 95.9%
- remaining activity at 3.75 µM ([2]; Well no.=654): 96.7%

Structure (SMILES): NCC(=O)NCC(=O)O [Glycylglycine] (H-Gly-Gly-OH)
- remaining activity at 1.25 µM ([1]; Well no.=6641): 100%
- remaining activity at 3.75 µM ([2]; Well no.=6641): 102%

Structure (SMILES): OC[C@H]1O[C@@H](n2cnc3c(Nc4ccccc4)ncnc32)[C@H](O)[C@@H]1O [N6-Phenyladenosine]
- remaining activity at 1.25 µM ([1]; Well no.=1501): 97.5%
- remaining activity at 3.75 µM ([2]; Well no.=1501): 100%

Structure (SMILES): Nc1nc(N)c2nc(-c3cccc(O)c3)c(-c3cccc(O)c3)nc2n1 [TG100-115]
- remaining activity at 1.25 µM ([1]; Well no.=4846): 99.1%
- remaining activity at 3.75 µM ([2]; Well no.=4846): 99.1%
